According to ChEMBL document CHEMBL1122819, “Quinazoline antifolates inhibiting thymidylate synthase: variation of the N10 substituent” (J Med Chem, 1985):

What was measured:
L1210 [1] = assay: (§1) Growth inhibition was evaluated for L1210 cells in culture; format: functional; conditions: Mus musculus, read-out: ID50 (the source's name)
L1210 [2] = assay: as §1; format: functional, Mus musculus

IC50 (L1210 [1]) | Compound | Inhibition (L1210 [2])
> 270 µM | Nc1nc(O)c2cc(CN(CCC(=O)O)c3ccc(C(=O)NC(CCC(=O)O)C(=O)O)cc3)ccc2n1 (stereo not given) | 
16 µM | Nc1nc(O)c2cc(CN(CCF)c3ccc(C(=O)NC(CCC(=O)O)C(=O)O)cc3)ccc2n1 (stereo not given) | 
5 µM | Nc1nc(O)c2cc(CNc3ccc(C(=O)NC(CCC(=O)O)C(=O)O)cc3)ccc2n1 (stereo not given) [DIDEAZAFOLATE] | 
54 µM | Nc1nc(O)c2cc(CN(CCCO)c3ccc(C(=O)NC(CCC(=O)O)C(=O)O)cc3)ccc2n1 (stereo not given) | 
87 µM | NC(=O)CN(Cc1ccc2nc(N)nc(O)c2c1)c1ccc(C(=O)NC(CCC(=O)O)C(=O)O)cc1 (stereo not given) | 
> 200 µM | Nc1nc(O)c2cc(CN(Cc3cccc(F)c3)c3ccc(C(=O)NC(CCC(=O)O)C(=O)O)cc3)ccc2n1 (stereo not given) | 
400 µM | CC(C)N(Cc1ccc2nc(N)nc(O)c2c1)c1ccc(C(=O)NC(CCC(=O)O)C(=O)O)cc1 (stereo not given) | 
> 100 µM | Nc1nc(O)c2cc(CN(CC3CC3)c3ccc(C(=O)NC(CCC(=O)O)C(=O)O)cc3)ccc2n1 (stereo not given) | 
> 300 µM | N#CCCCN(Cc1ccc2nc(N)nc(O)c2c1)c1ccc(C(=O)NC(CCC(=O)O)C(=O)O)cc1 (stereo not given) | 10%
5 µM | Nc1nc(O)c2cc(CN(Cc3cnc(O)nc3O)c3ccc(C(=O)NC(CCC(=O)O)C(=O)O)cc3)ccc2n1 (stereo not given) | 
5 µM | C#CCN(Cc1ccc2[nH]c(N)nc(=O)c2c1)c1ccc(C(=O)NC(CCC(=O)O)C(=O)O)cc1 (stereo not given) | 
5 µM | N#CCN(Cc1ccc2nc(N)nc(O)c2c1)c1ccc(C(=O)NC(CCC(=O)O)C(=O)O)cc1 (stereo not given) | 
27 µM | Nc1nc(O)c2cc(CN(CC(=O)O)c3ccc(C(=O)NC(CCC(=O)O)C(=O)O)cc3)ccc2n1 (stereo not given) | 
100 µM | Nc1nc(O)c2cc(CN(CC(=O)c3ccccc3)c3ccc(C(=O)NC(CCC(=O)O)C(=O)O)cc3)ccc2n1 (stereo not given) | 
